Read-outs that look alike come from different tables or passages of the source.
Key:
human P450 17A1 [1] = conditions: read-out: IC50, progesterone 17α-hydroxylation, cited from earlier work
human P450 17A1 [2] = conditions: cited from earlier work; for IC50: read-out: IC50, 17α-OH pregnenolone to DHEA (lyase)
human P450 17A1 [3] = biological target: T1, human P450 17A1 (Homo sapiens, UniProt P05093)
T1 sequence (P05093 24-508 limits assumed): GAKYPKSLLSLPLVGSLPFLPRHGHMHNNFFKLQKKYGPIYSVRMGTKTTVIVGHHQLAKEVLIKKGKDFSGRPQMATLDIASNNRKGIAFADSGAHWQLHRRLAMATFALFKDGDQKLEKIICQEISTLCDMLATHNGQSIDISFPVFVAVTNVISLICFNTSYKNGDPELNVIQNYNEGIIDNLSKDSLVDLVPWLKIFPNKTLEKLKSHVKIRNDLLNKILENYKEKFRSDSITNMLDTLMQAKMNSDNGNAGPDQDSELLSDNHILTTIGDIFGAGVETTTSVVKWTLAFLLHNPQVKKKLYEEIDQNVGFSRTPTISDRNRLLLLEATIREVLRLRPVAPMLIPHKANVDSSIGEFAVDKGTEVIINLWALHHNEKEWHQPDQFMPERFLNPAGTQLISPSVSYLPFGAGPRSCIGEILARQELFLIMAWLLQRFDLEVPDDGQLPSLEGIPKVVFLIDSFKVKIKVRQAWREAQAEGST

human P450 17A1 [4] = biological target: T2, human P450 17A1 (Homo sapiens, UniProt P05093); assay: Inhibition as a function of preincubation time with abiraterone, CYP17A1R Bactosomes; type: biochemical; conditions: 50 nM abiraterone, 10 nM P450 17A1 Bactosomes
T2 sequence (P05093 1-508): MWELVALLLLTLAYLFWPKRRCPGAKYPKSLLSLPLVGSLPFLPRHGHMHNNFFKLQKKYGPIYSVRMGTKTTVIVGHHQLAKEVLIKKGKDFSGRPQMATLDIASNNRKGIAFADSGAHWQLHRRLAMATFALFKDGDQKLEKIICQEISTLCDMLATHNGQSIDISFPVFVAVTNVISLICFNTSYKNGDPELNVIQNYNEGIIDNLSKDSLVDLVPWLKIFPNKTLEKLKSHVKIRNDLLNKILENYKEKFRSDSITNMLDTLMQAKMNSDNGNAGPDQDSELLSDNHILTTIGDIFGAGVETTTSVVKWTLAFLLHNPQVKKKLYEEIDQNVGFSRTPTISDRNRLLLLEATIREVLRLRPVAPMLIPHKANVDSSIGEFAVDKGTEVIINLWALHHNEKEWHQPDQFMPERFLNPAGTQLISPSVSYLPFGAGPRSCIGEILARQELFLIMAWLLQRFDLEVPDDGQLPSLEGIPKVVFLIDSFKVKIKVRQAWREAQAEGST
Experimental: These experiments utilized bacterial membranes (CYP17A1R Bactosomes) as the source of P450 and POR. Experiments were done with 10 nM P450 17A1 in reaction volumes of 0.5 ml, with 100 nM b5 added. Abiraterone was added to 50 nM, and then, the reactions were initiated by the addition of an NADPH-generating system supplemented with either 20 μM progesterone (A) or 17α-OH pregnenolone (B) at the indicated times and proceeded for 5 min (at 37 and 23 °C, respectively).
Steady-state kinetic inhibition assays performed with Cypex CYP17A1R Bactosomes followed largely the same procedure with the following exception: the enzymatic system was prepared by preincubating (23 °C) P450 17A1 (CYP17A1R Bactosomes; 10 nM P450), b5 (100 nM), and potassium phosphate buffer (50 mM, pH 7.4) with abiraterone (50 nM) for varying lengths of time (0.25–30 min). Reactions (5 min) were then initiated with the NADPH-generating system described previously and subjected to the same procedure.

human P450 17A1 [5] = biological target: T1, human P450 17A1; assay: Rates of onset of inhibition, pre-steady-state rapid chemical quench; type: biochemical
Experimental: In the control experiment, ES is not inhibited (no I present). […] Both progesterone 17α-hydroxylation (Fig. 10) and 17α-OH pregnenolone lyase activity (Fig. 11) were measured without and with all five inhibitors.
Reactions were performed using a KinTek RQF-3 rapid quench apparatus (KinTek) with the reaction loop set at position 7 and the temperature at 37 °C. The RQF-3 is a rapid mixing device that initiates a reaction by forcing equal volumes of two mixing syringes into a reaction loop. After pausing for the indicated incubation time, the reaction is then quenched and expelled from the apparatus. The reaction mixture (containing enzyme and substrate [in CH3OH, 1% (v/v)]) was initiated with an equal volume (19 μl) of NADPH solution (2 mM), effectively halving the initial concentration of all reaction components. When appropriate, inhibitor (in CH3OH) was added to the NADPH solution (in CH3OH), taking care to keep the total CH3OH composition of the final reaction to 1% (v/v). The substrates progesterone (5 μM) and 17α-OH pregnenolone (1.5 μM) were allowed to react for different lengths of time (0.1–5 and 2–60 s, respectively) prior to quenching with 160 μl of 1 M HCl. Five replicates of each time point were collected into vials to increase the detection sensitivity of the respective product at the shorter time points.

human P450 17A1 [6] = biological target: T1, human P450 17A1; assay: IC50 determination, progesterone 17α-hydroxylation (17α-OH progesterone formation), reconstituted P450 17A1/POR/b5; type: biochemical; conditions: for IC50: IC50 (95% CI limits), progesterone 17α-hydroxylation, steady-state, 0.02 μM P450 17A1, 5 μM progesterone, 37 °C; for Ki: IC50 = Ki [1 + (S/Km)] for competitive inhibition, Km from Ref. 37, read-out: Predicted Ki, progesterone 17α-hydroxylation
Experimental: (§1) A 0.5 ml reaction was prepared in most cases by the reconstitution of P450 17A1 (0.02 μM), POR (0.5 μM), and b5 (0.5 μM) with freshly sonicated L-α-dilauroyl-sn-glycero-3-phosphocholine (30 μM). The mixture incubated on ice for 10 min, followed by the addition of potassium phosphate buffer (to a final concentration of 50 mM), substrate (5 μM progesterone or 1.5 μM 17α-OH pregnenolone ([37])), and water. Stock progesterone was prepared in CH3OH and was diluted to a final concentration of 5 μM (0.5% CH3OH, v/v). […] Reactions (in duplicate) were preincubated for 5 min at 37 °C with shaking before being initiated with an NADPH-generating system composed of 0.5 mM NADP^+, two units of yeast glucose 6-phosphate dehydrogenase ml^−1, and 10 mM glucose 6-phosphate ([56]). The inhibitor abiraterone was added immediately prior to the 5-min preincubation stage because of the rapid onset of inhibition. Reactions (5 min) were quenched by immersion in an ice bath, with the addition of CH2Cl2 (2.0 ml), and were centrifuged (10^3g, 10 min) to separate layers. The organic (bottom) phases were removed (1.6 ml) and transferred into clean vials, and the solvent was removed under a stream of nitrogen. Reactions were resuspended in a CH3CN/sodium acetate mixture (25 mM, pH 3.7) (1:1, v/v) and were transferred to vials for UPLC analysis. […] Substrate and product were detected using a Waters Acuity photodiode array system at 240 nm. Data were processed using the MassLynx software, and percent conversion of substrate to product was calculated. The data were normalized to the uninhibited reaction, which was set at 100% activity.

human P450 17A1 [7] = biological target: T1, human P450 17A1; assay: IC50 determination, 17α-OH pregnenolone lyase activity (DHEA formation), reconstituted P450 17A1/POR/b5; type: biochemical; conditions: for Ki: IC50 = Ki [1 + (S/Km)] for competitive inhibition, Km from Ref. 37, read-out: Predicted Ki, 17α-OH pregnenolone lyase; for Ratio (17-hydroxylation/lyase) of IC50: This work
Experimental: In the case of catalytic assays, the products of each reaction were redissolved in a solution of CF3CO2H (7 mM, prepared as a 0.1% v/v solution in C2H5OH) and dansyl hydrazine (10 mM, prepared in CH3OH) in amber glass vials (sealed and capped) and were allowed to react overnight (16 h) in the dark at room temperature (23 °C). The reaction was quenched with acetone (50 mM) followed by incubation at room temperature for 30 min. NaOH was added to 100 mM, and the products of the reactions were extracted into CH2Cl2 (1.0 ml), of which 0.8 ml of the organic (lower) layers was transferred to fresh amber vials and dried under a stream of nitrogen. The residues were redissolved in a mixture of a 0.1% HCO2H solution (aqueous) and CH3CN (0.1 ml; 1:1 dilution, v/v) and transferred to ultra performance LC (UPLC) vials for analysis. […] Data were processed using MassLynx software (Waters) (Fig. S5).
as §1
Experimental conditions for the lyase reaction were identical to the hydroxylation reaction with the following exceptions: 17α-OH pregnenolone (1.5 μM) was used as the substrate, and following extraction, the product of the reaction was derivatized with dansyl hydrazine as described previously.

human P450 17A1 [8] = biological target: T1, human P450 17A1; assay: KinTek Explorer modeling of kinetics of inhibition of progesterone 17α-hydroxylation; type: biochemical; conditions: fit of Figure 10E data; E 2 μM, S 5 μM progesterone, I 1 μM; read-out: Kd as a competitive inhibitor (value giving adequate model fits)
Experimental: The results of the progesterone 17α-hydroxylation abiraterone inhibition experiment in Figure 10E were analyzed further using KinTek Explorer software (KinTek; Fig. 13).
The lines were fit to the model shown, with the indicated rate and dissociation constants. The enzyme concentration (E) was 2 μM, substrate concentration (S) was 5 μM, and inhibitor concentration (I, abiraterone) was 1 μM. Fitting was done with KinTek Explorer.

P450 17A1 = conditions: cited from earlier work
human P450 17A1 [9] = biological target: T1, human P450 17A1; conditions: 250 nM P450 17A1 and 250 nM inhibitor, 23 °C
[10] = range of other studies, ref Other studies (2) Petrunak et al. 2017
[11] = IC50 (95% CI limits), 17α-OH pregnenolone lyase, steady-state, 0.02 μM P450 17A1, 1.5 μM 17α-OH pregnenolone, 37 °C

SMILES	IC50 (human P450 17A1 [1]; ref (2) Petrunak et al. 2017)	Ratio (17-hydroxylation/lyase) of IC50 (human P450 17A1 [2]; ref (2) Petrunak et al. 2017)	IC50 (human P450 17A1 [2]; ref (2) Petrunak et al. 2017)	IC50 (human P450 17A1 [6])	Ki (human P450 17A1 [6])	IC50 (human P450 17A1 [7]; [11])	Ki (human P450 17A1 [7])	Ratio (17-hydroxylation/lyase) of IC50 (human P450 17A1 [7])	other results
CC(C)[C@@](O)(c1ccc2cc(OC(F)F)c(OC(F)F)cc2c1)c1cn[nH]n1 [(R)-Seviteronel]	11300 nM	2.3	5000 nM	–	–	–	–	–	–
C[C@]12CC[C@H](O)CC1=CC[C@@H]1[C@@H]2CC[C@]2(C)C(c3cccnc3)=CC[C@@H]12 [Abiraterone, 17-(3-pyridyl)androsta-5,16-dien-3β-ol]	76 nM	2.1	36 nM	3.2 nM	1.3 nM	4.2 nM	3.4 nM	0.76	Further spectral changes after formation of final complex (human P450 17A1 [3]; 2 μM P450 17A1 and 2 μM abiraterone, spectra 1 to 57 min after mixing): no further spectral changes were observed over a period of 1 h; Inhibition of 17α-OH pregnenolone lyase versus preincubation time (human P450 17A1 [4]; 100 nM b5, 20 μM 17α-OH pregnenolone, 23 °C): almost completely inhibited after 15 s; Inhibition of progesterone 17α-hydroxylation versus preincubation time (human P450 17A1 [4]; 100 nM b5, 20 μM progesterone, 37 °C): almost completely inhibited after 15 s; Time within which inhibition occurred (human P450 17A1 [5]; Figs. 10, 11 and 13): less than 1 s; Earliest time points at which inhibition was noted (human P450 17A1 [5]; progesterone 17α-hydroxylation, 1 μM abiraterone, 2 μM P450): ≤ 100 ms; Ratio (17-hydroxylation/lyase) of IC50 (human P450 17A1 [2]; [10]): 0.1-1.4; IC50 (human P450 17A1 [2]; [10]): 2.9 to 800 nM; Kd (human P450 17A1 [8]): 1 nM; koff (P450 17A1): 0.0093 min⁻¹; t1/2 (from koff) (P450 17A1): 5 h
Clc1ccccc1C(c1ccccc1)(c1ccccc1)n1ccnc1 [Clotrimazole]	–	–	–	60 nM	23 nM	99 nM	81 nM	0.61	Time required for completion of spectral changes on binding (human P450 17A1 [3]; 2 μM P450 17A1 mixed with inhibitor, 23 °C): ~30 s; IC50 (human P450 17A1 [1]; ref (5) Munkboel et al. 2019): 180 nM; Ratio (17-hydroxylation/lyase) of IC50 (human P450 17A1 [2]; ref (5) Munkboel et al. 2019): 3.3; IC50 (human P450 17A1 [2]; ref (5) Munkboel et al. 2019): 56 nM; Lag in recovery of 17α-OH pregnenolone lyase from 1:1 inhibitor complex (human P450 17A1 [9]; 20 μM 17α-OH pregnenolone): Any suggestion of lags is no greater than in the uninhibited reactions; Lag in recovery of progesterone 17α-hydroxylation from 1:1 inhibitor complex (human P450 17A1 [9]; 20 μM progesterone): Any suggestion of lags is no greater than in the uninhibited reactions
C[C@]12CC[C@H](O)CC1=CC[C@@H]1[C@@H]2CC[C@]2(C)C(n3cnc4ccccc43)=CC[C@@H]12 [Galaterone]	130 nM	1.3	100 nM	–	–	–	–	–	–
CC(C)[C@](O)(c1ccc2cc(OC(F)F)c(OC(F)F)cc2c1)c1c[nH]nn1 [Seviteronel, (S)-Seviteronel]	1170 nM	2.7	430 nM	3500 nM	1370 nM	3430 nM	2810 nM	1.0	IC50 (human P450 17A1 [1]; ref (4) Rafferty et al. 2014): 690 nM; Ratio (17-hydroxylation/lyase) of IC50 (human P450 17A1 [2]; ref (4) Rafferty et al. 2014): 10; IC50 (human P450 17A1 [2]; ref (4) Rafferty et al. 2014): 69 nM; IC50 (human P450 17A1 [7]; This work (Fig. 3, Table 1), read-out: IC50, 17α-OH pregnenolone to DHEA (lyase)): 3400 nM
CC(C)(C)NC(=O)[C@@H]1CN(Cc2cccnc2)CCN1C[C@@H](O)C[C@@H](Cc1ccccc1)C(=O)N[C@H]1c2ccccc2C[C@H]1O [indinavir]	–	–	–	–	–	–	–	–	Spectral interaction with P450 17A1 (human P450 17A1 [3]): did not show strong enough spectral interaction
CCC(C)n1ncn(-c2ccc(N3CCN(c4ccc(OCC5COC(Cn6cncn6)(c6ccc(Cl)cc6Cl)O5)cc4)CC3)cc2)c1=O (stereo not shown) [itraconazole]	–	–	–	–	–	–	–	–	Spectral interaction with P450 17A1 (human P450 17A1 [3]): did not show strong enough spectral interaction
